≈ marks a conversion by molar mass, not a printed value. Like-named read-outs stand apart in the source and are kept apart here.
Tests used:
[1] = system: P-gp; design: method as in Minocha et al., 2012; Boudou-Rouquette et al., 2016; conditions: in vitro; ref Minocha et al., 2012; Boudou-Rouquette et al., 2016; cited from earlier work
[2] = system: CYP3D6; conditions: ref Food and Drug Administration, 2009; Yamada et al., 2020; cited from earlier work
[3] = system: OCT1; design: method as in Ellawatty et al., 2018; conditions: ref Ellawatty et al., 2018; cited from earlier work
[4] = ref Verheijen et al., 2017, cited from earlier work
[5] = cited from earlier work; for Solubility: ref Herbrink et al., 2018; for LogP: 2022
[6] = system: OATP1B1; conditions: ref Xu et al., 2010; cited from earlier work
[7] = ref Fink, 2020; cited from earlier work
[8] = cited from earlier work
[9] = Equilibrium solubility in pH buffers and biorelevant media; format: physicochemical
Experimental: (§1) After incubation of 2 h, 1 ml aliquot of each sample was withdrawn from the tube. The samples were filtered using a 0.22 μm filter, the first 0.8 ml was discarded, and the remaining 0.2 ml was analyzed by the HPLC. The specific experiments containing different conditions are as follows: • i) Solubility testing in simulated fasted and fed media
Specifically, solubility media were prepared using different phosphate buffers. Media pH was adjusted to the required value (Table 1, target value) using KOH or H3PO4, which were equal to the pH value of gastrointestinal tract compartment in a fasted and fed state in humans, respectively. • ii) Biorelevant solubility

[10] = ref Food and Drug Administration, 2009, cited from earlier work
[11] = Effect of NaTC (bile salt) concentration on solubility; format: physicochemical; conditions: for solubility at 2 h: pH 5.5, read-out: Solubility at Fasted state
Experimental: as §1
In this experiment, a final pH of 5.5 was used, representing a mean front luminal pH at fed state.

## Cc1ccc(Nc2nccc(N(C)c3ccc4c(C)n(C)nc4c3)n2)cc1S(N)(=O)=O [PAZ, pazopanib]
[1]
  Substrate for efflux transporter P-gp: weak substrate
[2]
  Inhibitor of CYP3D6: weak inhibitor
[3]
  Km: 3.47 µM
  OCT1 Vmax: 530 pmol/min/mg protein
[4]
  fup, fraction of free drug in plasma: 0.011% ([Verheijen et al., 2017])
[4]; value used in the model
  fup, fraction of free drug in plasma: 0.00011
[5]; above pH 4.0
  Solubility: practically insoluble
[5]; pH = 1.0
  Solubility: very slight solubility
[5]; ref Evaluation, 1997
  Biopharmaceutics Classification System (BCS) class: class II
[5]; ref Krens et al.
  LogP: 3.33
[5]; ref PMDA
  LogP: 3.65
[6]
  IC50: 790 nM
[7]
  Permeability: highly permeable
[8]; co-administration with ketoconazole, ref Van Leeuwen et al., 2014
  Increase in AUC of PAZ: approximately 66%
[8]; combined with carbamazepine, ref Van Leeuwen et al., 2014
  Decrease in AUC of PAZ: 30%
[8]; concomitant drugs that increase gastric pH, ref Budha et al., 2012
  Reduction of oral bioavailability: approximately 39%
[8]; with lapatinib, ref Van Leeuwen et al., 2014
  Increase in AUC of PAZ: 59%
[9]; 37 °C, pH 1.3, fassgf or other biorelevant, thermodynamic from solid, FaSSGF-PH1.3, read-out: Solubility (mean ± SD) at fasted state
  solubility at 2 h: 436.1 ± 1 µg/mL (≈ 997 µM)
[9]; 37 °C, pH 4.5, fassgf or other biorelevant, thermodynamic from solid, FEDGAS-PH4.5, read-out: Solubility (mean ± SD) at fed state
  solubility at 2 h: 147 ± 1.9 µg/mL (≈ 336 µM)
[9]; 37 °C, pH 5.8, thermodynamic from solid, FeSSIF-V2-PH5.8, read-out: Solubility (mean ± SD) at fed state
  solubility at 2 h: 6.5 ± 1.3 µg/mL (≈ 14.9 µM)
[9]; FEGGAS medium, 37 °C, fassgf or other biorelevant, thermodynamic from solid, fed state, used for food simulation, read-out: Mean value of the three solubility in the FEGGAS medium
  solubility at 2 h: 167 µg/mL (≈ 381 µM)
[9]; PH7.0
  Solubility (mean ± SD) at fed state: N (Not detected (below the detection limit))
[9]; PH7.5
  Solubility (mean ± SD) at fed state: N (Not detected (below the detection limit))
[9]; pH 3, FEDGAS-PH3.0, read-out: Solubility (mean ± SD) at fed state
  solubility at 2 h: 322.7 ± 2.6 µg/mL (≈ 738 µM)
[9]; pH 4.78, FaSSGF-PH4.78 (elevated gastric pH after esomeprazole), read-out: Solubility (mean ± SD) at fasted state
  solubility at 2 h: 46.1 ± 3.4 µg/mL (≈ 105 µM)
[9]; pH 4.9, FEDGAS-PH4.9, read-out: Solubility (mean ± SD) at fed state
  solubility at 2 h: 40 ± 0.7 µg/mL (≈ 91.4 µM)
[9]; pH 6.5, FaSSIF-V2-PH6.5, read-out: Solubility (mean ± SD) at fasted state
  solubility at 2 h: 0.63 ± 0.18 µg/mL (≈ 1.44 µM)
[9]; pH ≥ 7.0
  Solubility: cannot even be detected
[9]; phosphate buffer, 37 °C, pH 3, aqueous buffer, thermodynamic from solid, PH3.0, read-out: Solubility (mean ± SD) at fasted state
  solubility at 2 h: 391 ± 4.6 µg/mL (≈ 895 µM)
[9]; phosphate buffer, 37 °C, pH 4.5, aqueous buffer, thermodynamic from solid, PH4.5, read-out: Solubility (mean ± SD) at fasted state
  solubility at 2 h: 68.3 ± 3.3 µg/mL (≈ 156 µM)
[9]; phosphate buffer, 37 °C, pH 5, aqueous buffer, thermodynamic from solid, PH5.0, read-out: Solubility (mean ± SD) at fasted state
  solubility at 2 h: 24.2 ± 2.3 µg/mL (≈ 55.3 µM)
[9]; phosphate buffer, 37 °C, pH 6, aqueous buffer, thermodynamic from solid, PH6.0, read-out: Solubility (mean ± SD) at fasted state
  solubility at 2 h: 7.6 ± 0.6 µg/mL (≈ 17.4 µM)
[9]; phosphate buffer, 37 °C, pH 7, aqueous buffer, thermodynamic from solid, PH7.0, read-out: Solubility (mean ± SD) at fasted state
  solubility at 2 h: < 0.27 µg/mL
[9]; phosphate buffer, 37 °C, pH 7.5, aqueous buffer, thermodynamic from solid, PH7.5, read-out: Solubility (mean ± SD) at fasted state
  solubility at 2 h: < 0.27 µg/mL
[9]; phosphate buffer, pH 2, PH2.0, read-out: Solubility (mean ± SD) at fasted state
  solubility at 2 h: 263.9 ± 1.1 µg/mL (≈ 603 µM)
[10]; Ctrough above 32 μg/ml
  Incidence of high blood pressure: ~80%
[10]; Ctrough above approximately 56 μg/ml
  Probability of ALT elevation: ~20%
[10]
  Cmax threshold of clinical exposure-toxicity: less than 56 μg/ml
  Ctrough needed for sufficient clinical response: above 15 μg/ml
  Ctrough threshold of clinical exposure-toxicity: < 32000 ng/mL
[11]; 15 mM compared with 30 mM NaTC
  Increase of solubility with NaTC: about 4 fold
[11]; biorelevant medium with sodium taurocholate (NaTC), 37 °C, pH 5.5, fassgf or other biorelevant, thermodynamic from solid, NaTC 3.75 mM
  solubility at 2 h: 1.51 µg/mL
[11]; biorelevant medium with sodium taurocholate (NaTC), 37 °C, pH 5.5, fassgf or other biorelevant, thermodynamic from solid, NaTC 15 mM
  solubility at 2 h: 6.93 µg/mL
[11]; biorelevant medium with sodium taurocholate (NaTC), 37 °C, pH 5.5, fassgf or other biorelevant, thermodynamic from solid, NaTC 30 mM
  solubility at 2 h: 27.9 µg/mL
[11]; biorelevant medium with sodium taurocholate (NaTC), pH 5.5, NaTC 7.5 mM
  solubility at 2 h: 3.02 µg/mL
[11]; medium with 0 mM NaTC, 37 °C, pH 5.5, fassgf or other biorelevant, thermodynamic from solid, NaTC 0 mM
  solubility at 2 h: 0.36 µg/mL

Source: publication PMC9510668 (Frontiers in Pharmacology, 2022)
